Results published in PMC5915149, “The role of oxidative stress in activity of anticancer thiosemicarbazones” (Oncotarget, 2018).
Read-outs that look alike come from different tables or passages of the source.

Experiments:
[1] = system: calf-thymus DNA (CT-DNA); parameters: method as in PMID 26599982; conditions: cited from earlier work
[2] = system: MCF-7; experiment: MTS antiproliferative assay, MCF-7 (with or without added metal ions); type: cell-based, human; conditions: for IC50: Homo sapiens, MCF7
Description: (§1) The cells were seeded in 96-well plates (Nunc) at a density of 3,500 cells/well (HCT116 and MCF-7) and 3,000 cells/well (NHDF) and incubated at 37° C for 24 h. The assay was performed following a 96 h incubation with varying concentrations of the compounds that were being tested. Then, 20 µL of CellTiter 96® AQueous One Solution-MTS (Promega) was added to each well (with 100 µL DMEM without phenol red) and incubated for 1 h at 37° C. The optical densities of the samples were analyzed at 490 nm using a multi-plate reader (Synergy 4, Bio Tek). Results were expressed as a percentage of the control and calculated as the inhibitory concentration (IC50) values (using GraphPad Prism 5). The IC50 parameter was defined as the compound concentration that was necessary to reduce the proliferation of cells to 50% of the untreated control. Each individual compound was tested in triplicate in a single experiment with each experiment being repeated three or four times.
(§2) The HCT116 and MCF-7 cells were seeded in 96-well plates (Nunc) at a density of 3,500 cells/well and incubated at 37° C for 24 h. The MTS assay was performed following a 96 h incubation with varying concentrations of the tested compounds. Additionally, a 20 µM solution of CuSO4, FeSO4 or FeCl3 was added into wells with the tested compounds. The results were expressed as a percentage of the control and calculated as the inhibitory concentration (IC50) values using GraphPad Prism 5. Each individual compound was tested in triplicate in a single experiment with each experiment being repeated three times.

[3] = system: HCT116; experiment: MTS antiproliferative assay, HCT116 (with or without added metal ions); type: cell-based, human; conditions: for IC50: Homo sapiens, HCT-116
Description: as §1, §2

[4] = system: NHDF; experiment: MTS cytotoxicity assay, normal fibroblasts; type: cell-based, human; conditions: Homo sapiens, NHDF, 96 h incubation
Description: as §1

## COc1cccc2c1C(=O)c1c(O)c3c(c(O)c1C2=O)C[C@@](O)(C(=O)CO)C[C@@H]3O[C@H]1C[C@H](N)[C@H](O)[C@H](C)O1 [DOX, doxorubicin, reference compound]
[1]; bound to CT-DNA
  % hypochromism: 34.2%
  Changes in absorbance: hypochromism
  Δε: 3235.6 M⁻¹ cm⁻¹
[1]; bound to CT-DNA, listed as doxorubicin
  % hypochromism: about 34.2%
[1]; wavelengths of maximum absorption, compound alone vs DNA-bound
  blue/red shift: 10 nm
[2]; 96 h, 20 µM CuSO4 added, read-out: Activity - IC50 MCF-7+ Cu^2+
  IC50: 336 ± 65.3 nM
[2]; 96 h, 20 µM FeCl3 added, read-out: Activity - IC50 MCF-7+ Fe^3+
  IC50: 414 ± 59 nM
[2]; 96 h incubation, MTS, read-out: Activity - IC50 MCF-7
  IC50: 405 ± 38 nM
[2]; versus NHDF
  Selectivity index, calculated for MCF-7: 0.3
[3]; 96 h, 20 µM CuSO4 added, read-out: Activity - IC50 HCT116+ Cu^2+
  IC50: 62.5 ± 8.24 nM
[3]; 96 h, 20 µM FeCl3 added, read-out: Activity - IC50 HCT116+ Fe^3+
  IC50: 84.8 ± 11.2 nM
[3]; 96 h incubation, MTS, read-out: Activity - IC50 HCT116
  IC50: 91 ± 6.96 nM
[3]; versus NHDF
  Selectivity index, calculated for HCT116: 1.5
[4]
  IC50: 137 ± 26 nM
